This is an account of results in patent publication US5397774A, “Pyrazolopyrimidine and pyrimidinyl bisphosphonic esters as anti-inflammatories” (The Upjohn Company, priority 1993, dated 1995).

Where a name gives a salt, the structure may show the parent alone.

For the first assay, the system named is DTH granuloma (DTH GRA) lesion in mBSA-sensitized mice. Kind of assay: Delayed Type Hypersensitivity Granuloma Assay (DTH GRA) model for inflammation. The format is in vivo, mouse. As to conditions: Mus musculus, 216 h; Table 2, Formula 2 compounds; tested at 1 mg/kg, PO. Here is the method:
This assay is described by Dunn, C.
Briefly, mBSA-sensitized mice have a DTH granuloma (DTH GRA) lesion induced by subcutaneously implanting a mBSA-soaked filter which is excised after nine days. Compounds are administered to the mice to determine their effect on the lesions. The results are recorded as percent inhibition. […] Inhibition of 10 to 20% is considered to indicate anti-granuloma activity.
Again, as in Table 1, the results are recorded as percent inhibition. […] Inhibition of 10 to 20% is considered to indicate anti-granuloma activity. […]
With `Cn1c(CCC(P(=O)(O)O)P(=O)(O)O)nc(-c2ccccc2)cc1=O` [q, (3-(2-(3-Methyl-4-oxo-6-phenyl-4(3H)-pyrimidinyl))-propylidine)bisphosphonic acid disodium salt], the inhibition in vivo at 1 mg/kg was found to be 57%.

The same assay, now with this note: Mus musculus, po, 216 h, Table 1, Formula 1 compounds; 10 mg/kg PO; mouse DTH granuloma excised after nine days.
As for `CCOP(=O)(OCC)C(CCc1cc(C)nc2c(C#N)c(-c3ccccc3)nn12)P(=O)(OCC)OCC` [c, (3-(3-Cyano-5-methyl-2-phenyl-pyrazolo(1,5-a)pyrimidin-7-yl)-propylidene)bisphosphonic acid tetraethyl ester], the inhibition in vivo at 10 mg/kg was 26%.

On to `CCOP(=O)(OCC)C(CCc1cc(C)nc2c(C#N)c(C)nn12)P(=O)(OCC)OCC` [a, (3-(3-Cyano-2,5-dimethyl-pyrazolo(1,5-a)pyrimidin-7-yl)propylidene)bisphosphonic acid tetraethyl ester], for which the inhibition in vivo at 10 mg/kg amounted to 46%.

As to `COP(=O)(OC)C(CCc1cc(C)nc2c(C#N)c(C)nn12)P(=O)(OC)OC` [m, (3-(3-Cyano-2,5-dimethyl-pyrazolo(1,5-a)pyrimidin-7-yl)-propylidene)bisphosphonic acid tetramethyl ester], the inhibition in vivo at 10 mg/kg came out at 41%.

As to `CCOP(=O)(OCC)C(CCc1cc(C)nc2cc(-c3ccccc3)nn12)P(=O)(OCC)OCC` [i, (3-(5-Methyl-2-phenyl-pyrazolo(1,5-a)pyrimidin-7-yl)-propylidene)bisphosphonic acid tetraethyl ester], the inhibition in vivo at 10 mg/kg turned out to be 47%.

For the molecule `CCOP(=O)(OCC)C(CCc1cc(C)nc2c([N+](=O)[O-])c(C)nn12)P(=O)(OCC)OCC` [e, (3-(3-Nitro-2,5-dimethyl-pyrazolo(1,5-a)pyrimidin-7-yl)-propylidene)bisphosphonic acid tetraethyl ester], the inhibition in vivo at 10 mg/kg is 41%.

Staying with this assay, now noted: Mus musculus, po, 216 h, Table 2, Formula 2 compounds; 10 mg/kg PO; mouse DTH granuloma excised after nine days.
With `CCOP(=O)(O)C(CCc1nc(-c2ccccc2)cc(=O)n1C)P(=O)(OCC)OCC` (stereo not shown) [rr, (3-(2-(3-Methyl-4-oxo-6-phenyl-4(3H)-pyrimidinyl))-propylidine)bisphosphonic acid triethyl ester sodium salt], the inhibition in vivo at 10 mg/kg came to 50%.

Turning to `CCOc1ccc(-c2cc(=O)n(C)c(CCC(P(=O)(OCC)OCC)P(=O)(OCC)OCC)n2)cc1` [ee, (3-(2-(3-Methyl-4-oxo-6-(4-ethoxyphenyl)-4(3H)-pyrimidinyl))-propylidine)bisphosphonic acid tetraethyl ester], the inhibition in vivo at 10 mg/kg turned out to be 46%.

Take `C=CCn1c(CCC(P(=O)(OCC)OCC)P(=O)(OCC)OCC)nc(-c2ccccc2)cc1=O` [t, (3-(2-(3-Allyl-4-oxo-6-phenyl-4(3H)-pyrimidinyl))-propylidine)bisphosphonic acid tetraethyl ester]: the inhibition in vivo at 10 mg/kg worked out at 7%.

With `CCOP(=O)(OCC)C(CCc1nc(-c2ccc(Br)cc2)cc(=O)n1C)P(=O)(OCC)OCC` [aa, (3-(2-(3-Methyl-4-oxo-6-(4-bromophenyl)-4(3H)-pyrimidinyl))-propylidine)bisphosphonic acid tetraethyl ester], the inhibition in vivo at 10 mg/kg is 20%.

For `CCCn1c(CCC(P(=O)(OCC)OCC)P(=O)(OCC)OCC)nc(-c2ccccc2)cc1=O` [jj, (3-(2-(3-Propyl-4-oxo-6-phenyl-4(3H)-pyrimidinyl))-propylidine)bisphosphonic acid tetraethyl ester], the inhibition in vivo at 10 mg/kg worked out at 41%.

Take `CCOP(=O)(OCC)C(CCc1nc(-c2cccc(C)c2)cc(=O)n1C)P(=O)(OCC)OCC` [v, (3-(2-(3-Methyl-4-oxo-6-(3-methyl-phenyl)-4(3H)-pyrimidinyl))-propylidine)bisphosphonic acid tetraethyl ester]: the inhibition in vivo at 10 mg/kg stood at 40%.

The assay is the same for the next values; noted with them: Table 2, Formula 2 compounds; 10 mg/kg PO; mouse DTH granuloma excised after nine days.
With “3-(7-Chloro-3-(α,α,α-trifluoro-o-tolyl)-4(3H)-quinazolinone)-propylidine)bisphosphonic acid tetraethyl ester [pp]”, the “% Inhibition” value is on record as 24%.

By inhibition in vivo is commonly meant how much of the control response was suppressed. In general, % Inhibition refers to how much of the control response was suppressed.
